{
  "source": "paper PMC10287695",
  "about": "“Non-covalent inhibitors of thioredoxin glutathione reductase with schistosomicidal activity in vivo” (Nature Communications, 2023)",
  "note": "“And” between values parts separate entries of the source, which are not always exact repeats. Equal entries are not always repeated.",
  "data": [
    {"target": "T1, Human TrxR1 (Homo sapiens, UniProt Q16881)", "T1 construct": "made in house", "T1 sequence (Q16881 1-499 isoform Q16881-5)": "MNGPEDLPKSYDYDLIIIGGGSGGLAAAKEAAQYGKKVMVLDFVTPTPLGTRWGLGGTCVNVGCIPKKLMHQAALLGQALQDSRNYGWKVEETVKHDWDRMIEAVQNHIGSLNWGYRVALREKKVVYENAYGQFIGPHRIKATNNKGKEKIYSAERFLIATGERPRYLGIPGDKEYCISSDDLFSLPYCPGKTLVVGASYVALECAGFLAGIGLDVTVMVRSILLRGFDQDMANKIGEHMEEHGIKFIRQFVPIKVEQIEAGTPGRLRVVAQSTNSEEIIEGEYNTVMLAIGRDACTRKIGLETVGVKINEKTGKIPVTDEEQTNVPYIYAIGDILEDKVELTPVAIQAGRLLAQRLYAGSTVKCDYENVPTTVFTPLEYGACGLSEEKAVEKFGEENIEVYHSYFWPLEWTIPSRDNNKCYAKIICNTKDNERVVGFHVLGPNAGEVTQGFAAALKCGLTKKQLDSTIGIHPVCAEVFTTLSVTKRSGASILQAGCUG", "test": "Human TrxR1 enzyme inhibition (DTNB reduction)", "assay_type": "biochemical", "details": "15 min preincubation (enzyme + 100 µM NADPH + compound); read-out: Human TrxR1 IC50", "method": "(§1) Recombinant TGR, human TrxR1, B. malayi (Bm)TrxR and human GR proteins were expressed and purified as described[20],[69],[79]. The codon optimized sequence for P. falciparum (PfTrxR, https://www.ncbi.nlm.nih.gov/protein/CAA60574.1/) with an N-terminal 6-His tag was synthesized and inserted into pET15b (GenScript) and expressed in BL21 (DE3) cells and purified as described for human GR[20]. TGR and TrxR enzyme inhibition assays were performed in triplicate at 25 °C as described[20] in 0.1 M potassium phosphate (pH 7.4), 10 mM EDTA, 100 µM NADPH and 0.01% Tween-20. […] The reaction was started with addition of an equal volume of DTNB (6 mM) and NADPH (100 µM) and the increase in A412 during the first 3 min was recorded. […] The reaction was preincubated for 15 min. Activity was initiated with the addition of 1 mM GSSG and 100 μM NADPH and initial rates of NADPH oxidation were monitored at 340 nm. The reactions were done in triplicate. The IC50 was calculated in GraphPad Prism.", "units": {"IC50": "µM"}, "values": [
      {"compound": "Cc1oc(C2CCCCC2)nc1C(=O)N[C@@H]1C[C@@H]2C[C@H]([C@H]1C)C2(C)C", "note": "[Compound 7]", "IC50": "22.3 ± 2.03"}
    ]},
    {"target": "T1, Human TrxR1", "test": "Human TrxR1 enzyme inhibition (DTNB reduction)", "assay_type": "biochemical", "details": "hsTrxR, 15 minutes pre-incubation, compound 15 µM", "method": "as §1", "units": {"inhibition at 15 µM": "%"}, "values": [
      {"compound": "Cc1oc(C2CCCCC2)nc1C(=O)N[C@@H]1C[C@@H]2C[C@H]([C@H]1C)C2(C)C", "note": "[Compound 7]", "inhibition at 15 µM": 38.1}
    ]},
    {"target": "T1, Human TrxR1", "test": "Human TrxR1 enzyme inhibition (DTNB reduction)", "assay_type": "biochemical", "details": "hsTrxR, 15 minutes pre-incubation, compound 30 µM", "method": "as §1", "units": {"inhibition at 30 µM": "%"}, "values": [
      {"compound": "Cc1oc(C2CCCCC2)nc1C(=O)N[C@@H]1C[C@@H]2C[C@H]([C@H]1C)C2(C)C", "note": "[Compound 7]", "inhibition at 30 µM": 63.3}
    ]},
    {"target": "T1, Human TrxR1", "test": "Human TrxR1 enzyme inhibition (DTNB reduction)", "assay_type": "biochemical", "details": "hsTrxR, 15 minutes pre-incubation, compound 66.7 µM; read-out: % inhibition", "method": "as §1", "units": {"inhibition at 66.7 µM": "%"}, "values": [
      {"compound": "Cc1oc(C2CCCCC2)nc1C(=O)N[C@@H]1C[C@@H]2C[C@H]([C@H]1C)C2(C)C", "note": "[Compound 7]", "inhibition at 66.7 µM": 92.7}
    ]},
    {"target": "T2, Human GR (Homo sapiens, UniProt P00390)", "T2 construct": "made in house", "T2 sequence (P00390 44-522)": "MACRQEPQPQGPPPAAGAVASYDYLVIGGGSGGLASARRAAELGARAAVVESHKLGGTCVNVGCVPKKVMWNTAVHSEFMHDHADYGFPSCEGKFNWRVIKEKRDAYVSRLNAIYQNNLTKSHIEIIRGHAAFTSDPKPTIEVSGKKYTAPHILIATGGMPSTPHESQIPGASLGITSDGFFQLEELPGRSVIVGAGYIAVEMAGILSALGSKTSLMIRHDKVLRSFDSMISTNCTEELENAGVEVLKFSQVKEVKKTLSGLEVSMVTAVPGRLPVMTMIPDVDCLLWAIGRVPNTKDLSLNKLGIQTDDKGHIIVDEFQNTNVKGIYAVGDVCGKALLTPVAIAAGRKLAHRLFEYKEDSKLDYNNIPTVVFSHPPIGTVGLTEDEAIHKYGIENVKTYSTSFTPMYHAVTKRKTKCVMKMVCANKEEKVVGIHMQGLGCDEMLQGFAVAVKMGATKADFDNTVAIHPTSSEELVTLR", "test": "Human GR enzyme inhibition (GSSG reduction, NADPH oxidation)", "assay_type": "biochemical", "details": "66.7 µM", "values": [
      {"compound": "Cc1oc(C2CCCCC2)nc1C(=O)N[C@@H]1C[C@@H]2C[C@H]([C@H]1C)C2(C)C", "note": "[Compound 7]", "Human GR (inhibition at 66.7 µM)": "n.i."}
    ]},
    {"target": "T2, Human GR", "test": "Human GR enzyme inhibition (GSSG reduction, NADPH oxidation)", "assay_type": "biochemical", "details": "hGR, 15 minutes pre-incubation, compound 15 µM; read-out: % inhibition", "units": {"inhibition at 15 µM": "%"}, "values": [
      {"compound": "Cc1oc(C2CCCCC2)nc1C(=O)N[C@@H]1C[C@@H]2C[C@H]([C@H]1C)C2(C)C", "note": "[Compound 7]", "inhibition at 15 µM": -0.669}
    ]},
    {"target": "T2, Human GR", "test": "Human GR enzyme inhibition (GSSG reduction, NADPH oxidation)", "assay_type": "biochemical", "details": "hGR, 15 minutes pre-incubation, compound 30 µM; read-out: % inhibition", "units": {"inhibition at 30 µM": "%"}, "values": [
      {"compound": "Cc1oc(C2CCCCC2)nc1C(=O)N[C@@H]1C[C@@H]2C[C@H]([C@H]1C)C2(C)C", "note": "[Compound 7]", "inhibition at 30 µM": -0.696}
    ]},
    {"target": "T2, Human GR", "test": "Human GR enzyme inhibition (GSSG reduction, NADPH oxidation)", "assay_type": "biochemical", "details": "hGR, 15 minutes pre-incubation, compound 66.7 µM; read-out: % inhibition", "units": {"inhibition at 66.7 µM": "%"}, "values": [
      {"compound": "Cc1oc(C2CCCCC2)nc1C(=O)N[C@@H]1C[C@@H]2C[C@H]([C@H]1C)C2(C)C", "note": "[Compound 7]", "inhibition at 66.7 µM": -1.12}
    ]},
    {"target": "T2, Human GR", "test": "Human GR enzyme inhibition (GSSG reduction, NADPH oxidation)", "assay_type": "biochemical", "details": "hGR, 6 hours pre-incubation, compound 15 µM; read-out: % inhibition", "units": {"inhibition at 15 µM": "%"}, "values": [
      {"compound": "Cc1oc(C2CCCCC2)nc1C(=O)N[C@@H]1C[C@@H]2C[C@H]([C@H]1C)C2(C)C", "note": "[Compound 7]", "inhibition at 15 µM": -0.918}
    ]},
    {"target": "T2, Human GR", "test": "Human GR enzyme inhibition (GSSG reduction, NADPH oxidation)", "assay_type": "biochemical", "details": "hGR, 6 hours pre-incubation, compound 30 µM; read-out: % inhibition", "units": {"inhibition at 30 µM": "%"}, "values": [
      {"compound": "Cc1oc(C2CCCCC2)nc1C(=O)N[C@@H]1C[C@@H]2C[C@H]([C@H]1C)C2(C)C", "note": "[Compound 7]", "inhibition at 30 µM": -2.19}
    ]},
    {"target": "T2, Human GR", "test": "Human GR enzyme inhibition (GSSG reduction, NADPH oxidation)", "assay_type": "biochemical", "details": "hGR, 6 hours pre-incubation, compound 66.7 µM; read-out: % inhibition", "units": {"inhibition at 66.7 µM": "%"}, "values": [
      {"compound": "Cc1oc(C2CCCCC2)nc1C(=O)N[C@@H]1C[C@@H]2C[C@H]([C@H]1C)C2(C)C", "note": "[Compound 7]", "inhibition at 66.7 µM": -0.656}
    ]},
    {"test_system": "S. mansoni adult worms", "test": "GSH/GSSG ratio in ex vivo adult worms", "assay_type": "cell-based", "details": "adult worms ex vivo, 1 hr", "method": "(§2) We assessed GSH/GSSG levels experimentally by treating S. mansoni adult worms with 50 µM of compounds, or respective controls 5 µM Auranofin, 50 µM PZQ or 50 µM MZM and 0.01% DMSO for 3 h. Worm homogenate was prepared by washing three times with PBS to remove residual compounds and ten volumes of ice cold 5% sulfosalicylic acid was added. Worms were manually homogenized on ice using VWR Pellet Mixer Adaptor. The worm suspension was centrifuged at 14000 × g, 4 °C for 10 min and the acid supernatants transferred. An equal volume of ice-cold neutralization buffer (500 mM HEPES, pH 8.0) was added to the acid supernatants.\n(§3) GSH/GSSG assay was performed by diluting the acid supernatant (5-fold) with ice-cold dilution buffer (250 mM HEPES, pH 7.5). Using white opaque luminescence plate on ice, 25 µl of the diluted worm acid supernatant was added each well in triplicates. Total glutathione lysis reagent and GSSG lysis reagent, which contains alkylating agent N-ethylmaleimide (25 mM) were prepared following manufactures protocol and added to respective wells along with blank for background. Total glutathione lysis reagent or oxidized glutathione lysis reagent (25 µl) was added to respective wells containing worm acid supernatants and the plate was shaken for 5 min. Luciferin generation reagent (LGR) (50 µl) was added to all wells, briefly shaken and incubated at room temperature for 30 min. Luciferin detection reagent (LDR) (100 µl) was added to all wells, briefly shaken and incubated for 15 min at room temperature and the luminescence measured using microplate imager (BioTek Cytation3). GSH/GSSH ratio for DMSO control and compounds were calculated using (Net DMSO total glutathione RFU) – (Net DMSO GSSG RFU)/ (Net DMSO GSSG RFU)/2 and (Net inhibitor total glutathione RFU) – (Net inhibitor GSSG RFU)/ (Net inhibitor GSSG RFU)/2 respectively.", "units": {"% Ratio GSH/GSSG": "%"}, "values": [
      {"compound": "Cc1oc(C2CCCCC2)nc1C(=O)N[C@@H]1C[C@@H]2C[C@H]([C@H]1C)C2(C)C", "note": "[Compound 7]", "% Ratio GSH/GSSG": 52.5902}
    ]},
    {"test_system": "S. mansoni adult worms", "test": "GSH/GSSG ratio in ex vivo adult worms", "assay_type": "cell-based", "details": "adult worms ex vivo, 1 hr, relative to 0hr", "method": "as §2, §3", "units": {"Reduction (%) in GSH/GSSG ratio": "%"}, "values": [
      {"compound": "Cc1oc(C2CCCCC2)nc1C(=O)N[C@@H]1C[C@@H]2C[C@H]([C@H]1C)C2(C)C", "note": "[Compound 7]", "Reduction (%) in GSH/GSSG ratio": 13.6142}
    ]},
    {"test_system": "S. mansoni adult worms", "test": "GSH/GSSG ratio in ex vivo adult worms", "assay_type": "cell-based", "details": "adult worms ex vivo, 1 hr, relative to 0hr, values given as fraction", "method": "as §2, §3", "units": {"Reduction (%) in GSH/GSSG ratio": "%"}, "values": [
      {"compound": "Cc1oc(C2CCCCC2)nc1C(=O)N[C@@H]1C[C@@H]2C[C@H]([C@H]1C)C2(C)C", "note": "[Compound 7]", "Reduction (%) in GSH/GSSG ratio": 0.1361}
    ]},
    {"test_system": "S. mansoni adult worms", "test": "GSH/GSSG ratio in ex vivo adult worms", "assay_type": "cell-based", "details": "adult worms ex vivo, 3 hr", "method": "as §2, §3", "units": {"% Ratio GSH/GSSG": "%"}, "values": [
      {"compound": "Cc1oc(C2CCCCC2)nc1C(=O)N[C@@H]1C[C@@H]2C[C@H]([C@H]1C)C2(C)C", "note": "[Compound 7]", "% Ratio GSH/GSSG": 37.7921}
    ]},
    {"test_system": "S. mansoni adult worms", "test": "GSH/GSSG ratio in ex vivo adult worms", "assay_type": "cell-based", "details": "adult worms ex vivo, 3 hr, relative to 0hr", "method": "as §2, §3", "units": {"Reduction (%) in GSH/GSSG ratio": "%"}, "values": [
      {"compound": "Cc1oc(C2CCCCC2)nc1C(=O)N[C@@H]1C[C@@H]2C[C@H]([C@H]1C)C2(C)C", "note": "[Compound 7]", "Reduction (%) in GSH/GSSG ratio": 37.9219}
    ]},
    {"test_system": "S. mansoni adult worms", "test": "GSH/GSSG ratio in ex vivo adult worms", "assay_type": "cell-based", "details": "adult worms ex vivo, 3 hr, relative to 0hr, values given as fraction", "method": "as §2, §3", "units": {"Reduction (%) in GSH/GSSG ratio": "%"}, "values": [
      {"compound": "Cc1oc(C2CCCCC2)nc1C(=O)N[C@@H]1C[C@@H]2C[C@H]([C@H]1C)C2(C)C", "note": "[Compound 7]", "Reduction (%) in GSH/GSSG ratio": 0.3792}
    ]},
    {"test_system": "S. mansoni adult worms", "test": "GSH/GSSG ratio in ex vivo adult worms", "assay_type": "cell-based", "details": "adult worms, 3 h exposure to compounds at 50 μM", "method": "as §2, §3", "values": [
      {"compound": "Cc1oc(C2CCCCC2)nc1C(=O)N[C@@H]1C[C@@H]2C[C@H]([C@H]1C)C2(C)C", "note": "[Compound 7]", "Decrease (%) in GSH/GSSG ratio": "38% and 36.9%"}
    ]}
  ]
}
